Experimental data published in PubChem BioAssay (NCI).
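A five-concentration, 48-hour dose response in 96-well plates underlies each endpoint, interpolated linearly between surrounding concentrations. Abbreviation: GI50, concentration required for 50% inhibition of growth. The concentration for full growth arrest is given as TGI.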

Columns and labels:
Experiment in all cases: inhibition of tumour cell growth, NCI panel, 48 h
SK-MEL-5 melanoma = tested on: SK-MEL-5 melanoma
MDA-MB-231 breast = tested on: MDA-MB-231 breast
CAKI-1 renal = tested on: CAKI-1 renal
TK-10 renal = tested on: TK-10 renal
HCT-116 colon = tested on: HCT-116 colon
IGROV1 ovarian = tested on: IGROV1 ovarian
DU-145 prostate = tested on: DU-145 prostate
MALME-3M melanoma = tested on: MALME-3M melanoma
HOP-92 NSCLC = tested on: HOP-92 NSCLC
UACC-62 melanoma = tested on: UACC-62 melanoma
SK-OV-3 ovarian = tested on: SK-OV-3 ovarian
UACC-257 melanoma = tested on: UACC-257 melanoma
NCI-H226 lung = tested on: NCI-H226 lung
MDA-MB-435 = tested on: MDA-MB-435
BT-549 breast = tested on: BT-549 breast
EKVX NSCLC = tested on: EKVX NSCLC
NCI/ADR-RES ovarian = tested on: NCI/ADR-RES ovarian
HCT-15 colon = tested on: HCT-15 colon
OVCAR-3 ovarian = tested on: OVCAR-3 ovarian
786-0 renal = tested on: 786-0 renal
UO-31 renal = tested on: UO-31 renal
SF-539 CNS = tested on: SF-539 CNS
COLO 205 colon = tested on: COLO 205 colon
SF-268 CNS = tested on: SF-268 CNS
MOLT-4 leukemia = tested on: MOLT-4 leukemia
A498 renal = tested on: A498 renal
U251 CNS = tested on: U251 CNS
PC-3 prostate = tested on: PC-3 prostate
NCI-H522 lung = tested on: NCI-H522 lung
HS 578T breast = tested on: HS 578T breast
SR leukemia = tested on: SR leukemia
SF-295 CNS = tested on: SF-295 CNS
NCI-H460 lung = tested on: NCI-H460 lung
M14 melanoma = tested on: M14 melanoma
RPMI-8226 leukemia = tested on: RPMI-8226 leukemia
HOP-62 NSCLC = tested on: HOP-62 NSCLC
HT29 colon = tested on: HT29 colon
SK-MEL-2 melanoma = tested on: SK-MEL-2 melanoma
A549 NSCLC = tested on: A549 NSCLC
OVCAR-4 ovarian = tested on: OVCAR-4 ovarian
HL-60(TB) leukemia = tested on: HL-60(TB) leukemia
SNB-19 CNS = tested on: SNB-19 CNS
SN12C renal = tested on: SN12C renal
LOX IMVI melanoma = tested on: LOX IMVI melanoma
NCI-H23 lung = tested on: NCI-H23 lung
CCRF-CEM leukemia = tested on: CCRF-CEM leukemia
SNB-75 CNS = tested on: SNB-75 CNS
OVCAR-8 ovarian = tested on: OVCAR-8 ovarian
MCF7 breast = tested on: MCF7 breast
HCC-2998 colon = tested on: HCC-2998 colon
ACHN renal = tested on: ACHN renal
OVCAR-5 ovarian = tested on: OVCAR-5 ovarian
SW-620 colon = tested on: SW-620 colon
SK-MEL-28 melanoma = tested on: SK-MEL-28 melanoma
T-47D breast = tested on: T-47D breast
KM12 colon = tested on: KM12 colon
RXF 393 renal = tested on: RXF 393 renal
K-562 leukemia = tested on: K-562 leukemia

SMILES: CN1C(=O)N(C)C2C1NN=c1s/c(=C\c3ccc(F)cc3)c(=O)n12 (stereo unspecified)
- GI50 (SK-MEL-5 melanoma): 0.995 µM
- TGI (SK-MEL-5 melanoma): 12 µM
- GI50 (MDA-MB-231 breast): 4.69 µM
- TGI (MDA-MB-231 breast): > 100 µM
- GI50 (CAKI-1 renal): 1.68 µM
- TGI (CAKI-1 renal): > 100 µM
- GI50 (TK-10 renal): 6.06 µM
- TGI (TK-10 renal): > 100 µM
- GI50 (HCT-116 colon): 0.795 µM
- TGI (HCT-116 colon): > 100 µM
- GI50 (IGROV1 ovarian): 3.21 µM
- TGI (IGROV1 ovarian): > 100 µM
- GI50 (DU-145 prostate): 3.22 µM
- TGI (DU-145 prostate): > 100 µM
- GI50 (MALME-3M melanoma): 3.17 µM
- TGI (MALME-3M melanoma): > 100 µM
- GI50 (HOP-92 NSCLC): 8.49 µM
- TGI (HOP-92 NSCLC): > 100 µM
- GI50 (UACC-62 melanoma): 3.61 µM
- TGI (UACC-62 melanoma): > 100 µM
- GI50 (SK-OV-3 ovarian): 3.57 µM
- TGI (SK-OV-3 ovarian): > 100 µM
- GI50 (UACC-257 melanoma): 3.02 µM
- TGI (UACC-257 melanoma): > 100 µM
- GI50 (NCI-H226 lung): 8.02 µM
- TGI (NCI-H226 lung): > 100 µM
- GI50 (MDA-MB-435): 0.361 µM
- TGI (MDA-MB-435): 1.71 µM
- GI50 (BT-549 breast): 13.1 µM
- TGI (BT-549 breast): > 100 µM
- GI50 (EKVX NSCLC): 4.02 µM
- TGI (EKVX NSCLC): > 100 µM
- GI50 (NCI/ADR-RES ovarian): 1.94 µM
- TGI (NCI/ADR-RES ovarian): > 100 µM
- GI50 (HCT-15 colon): 0.915 µM
- TGI (HCT-15 colon): > 100 µM
- GI50 (OVCAR-3 ovarian): 1.24 µM
- TGI (OVCAR-3 ovarian): 8.09 µM
- GI50 (786-0 renal): 7.55 µM
- TGI (786-0 renal): > 100 µM
- GI50 (UO-31 renal): 3.9 µM
- TGI (UO-31 renal): > 100 µM
- GI50 (SF-539 CNS): 2.1 µM
- TGI (SF-539 CNS): 5.72 µM
- GI50 (COLO 205 colon): 2.51 µM
- TGI (COLO 205 colon): > 100 µM
- GI50 (SF-268 CNS): 4.62 µM
- TGI (SF-268 CNS): > 100 µM
- GI50 (MOLT-4 leukemia): 3.07 µM
- TGI (MOLT-4 leukemia): > 100 µM
- GI50 (A498 renal): 1.39 µM
- TGI (A498 renal): 6.77 µM
- GI50 (U251 CNS): 3.06 µM
- TGI (U251 CNS): > 100 µM
- GI50 (PC-3 prostate): 2.33 µM
- TGI (PC-3 prostate): > 100 µM
- GI50 (NCI-H522 lung): 2.22 µM
- TGI (NCI-H522 lung): > 100 µM
- GI50 (HS 578T breast): 2.08 µM
- TGI (HS 578T breast): 7.31 µM
- GI50 (SR leukemia): 0.374 µM
- TGI (SR leukemia): 20 µM
- GI50 (SF-295 CNS): 2.45 µM
- TGI (SF-295 CNS): > 100 µM
- GI50 (NCI-H460 lung): 2.77 µM
- TGI (NCI-H460 lung): > 100 µM
- GI50 (M14 melanoma): 2.24 µM
- TGI (M14 melanoma): > 100 µM
- GI50 (RPMI-8226 leukemia): 2.56 µM
- TGI (RPMI-8226 leukemia): 8.91 µM
- GI50 (HOP-62 NSCLC): 3.48 µM
- TGI (HOP-62 NSCLC): > 100 µM
- GI50 (HT29 colon): 0.951 µM
- TGI (HT29 colon): > 100 µM
- GI50 (SK-MEL-2 melanoma): 4.13 µM
- TGI (SK-MEL-2 melanoma): > 100 µM
- GI50 (A549 NSCLC): 4.88 µM
- TGI (A549 NSCLC): > 100 µM
- GI50 (OVCAR-4 ovarian): 3.05 µM
- TGI (OVCAR-4 ovarian): > 100 µM
- GI50 (HL-60(TB) leukemia): 1.63 µM
- TGI (HL-60(TB) leukemia): 4.53 µM
- GI50 (SNB-19 CNS): 5.57 µM
- TGI (SNB-19 CNS): > 100 µM
- GI50 (SN12C renal): 6.97 µM
- TGI (SN12C renal): > 100 µM
- GI50 (LOX IMVI melanoma): 6.01 µM
- TGI (LOX IMVI melanoma): > 100 µM
- GI50 (NCI-H23 lung): 4.23 µM
- TGI (NCI-H23 lung): > 100 µM
- GI50 (CCRF-CEM leukemia): 1.91 µM
- TGI (CCRF-CEM leukemia): > 100 µM
- GI50 (SNB-75 CNS): 1.05 µM
- TGI (SNB-75 CNS): 5.22 µM
- GI50 (OVCAR-8 ovarian): 3.78 µM
- TGI (OVCAR-8 ovarian): > 100 µM
- GI50 (MCF7 breast): 0.673 µM
- TGI (MCF7 breast): > 100 µM
- GI50 (HCC-2998 colon): 13.4 µM
- TGI (HCC-2998 colon): > 100 µM
- GI50 (ACHN renal): 4.39 µM
- TGI (ACHN renal): > 100 µM
- GI50 (OVCAR-5 ovarian): 5.44 µM
- TGI (OVCAR-5 ovarian): > 100 µM
- GI50 (SW-620 colon): 1.86 µM
- TGI (SW-620 colon): > 100 µM
- GI50 (SK-MEL-28 melanoma): 7.31 µM
- TGI (SK-MEL-28 melanoma): > 100 µM
- GI50 (T-47D breast): 1.25 µM
- TGI (T-47D breast): > 100 µM
- GI50 (KM12 colon): 1.65 µM
- TGI (KM12 colon): > 100 µM
- GI50 (RXF 393 renal): 0.785 µM
- TGI (RXF 393 renal): 6 µM
- GI50 (K-562 leukemia): 0.54 µM
- TGI (K-562 leukemia): > 100 µM
